Laboratory results reported in ChEMBL document CHEMBL3400068, “Novel arylazopyrazole inhibitors of cyclin-dependent kinases” (Bioorg Med Chem, 2015).
Active and inactive are the calls of the source. No cut-off for these calls is given here.

Assays:
RPMI-8226 [1] = assay: Cytotoxicity against human RPMI8226 cells after 72 hrs by calcein AM staining-based fluorescence assay; format: functional, cell-based; settings: RPMI-8226, 72 h
MCF7 [2] = assay: Cytotoxicity against human MCF7 cells after 72 hrs by calcein AM staining-based fluorescence assay; format: functional, cell-based; settings: MCF7, 72 h
K562 [3] = assay: Cytotoxicity against human K562 cells after 72 hrs by calcein AM staining-based fluorescence assay; format: functional, cell-based; settings: K562, 72 h
[4] = target: Cyclin-dependent kinase 2/cyclin E1 (Homo sapiens, UniProt P24941); assay: Inhibition of CDK2/cyclin E (unknown origin) expressed in baculovirus infected Sf9 cells
MCF7 [5] = assay: Cell cycle arrest in human MCF7 cells assessed as accumulation at G1 phase at 40 uM after 24 hrs by propidium iodide staining-based flow cytometry (reference value: 61.9%); format: functional
RPMI-8226 [6] = assay: Induction of apoptosis in human RPMI8226 cells assessed as caspase 7 activation at 25 to 100 uM after 24 hrs by immunoblot analysis; format: functional, cell-based
MCF7 [7] = assay: Cell cycle arrest in 24 hrs serum-deprived human asynchronous MCF7 cells assessed as inhibition of re-entry to G1 phase at 6.25 to 25 uM after 16 hrs by propidium iodide staining-based flow cytometry; format: functional
K562 [8] = assay: Cell cycle arrest in human K562 cells assessed as accumulation at subG1 phase at 100 uM after 24 hrs by propidium iodide staining-based flow cytometry (reference value: 2.3%); format: functional
K562 [9] = assay: Cell cycle arrest in human K562 cells assessed as accumulation at G1 phase at 100 uM after 24 hrs by propidium iodide staining-based flow cytometry (reference value: 26.3%); format: functional
[10] = Cell cycle arrest in human RPMI8226 cells assessed as accumulation at subG1 phase at 100 uM after 24 hrs by propidium iodide staining-based flow cytometry (reference value: 9.8%); format: functional; settings: RPMI-8226
MCF7 [11] = assay: Cell cycle arrest in 24 hrs thymidine-synchronized human MCF7 cells assessed as delay in cell cycle progression at 12.5 to 25 uM after 16 hrs by propidium iodide staining-based flow cytometry; format: functional
[12] = target: Cyclin-dependent kinase 7/ cyclin H (Homo sapiens, UniProt P50613); assay: Inhibition of CDK7/cyclin H (unknown origin) expressed in baculovirus infected Sf9 cells
Cyclin-dependent kinase 7/ cyclin H, sequence (P51946 whole entry): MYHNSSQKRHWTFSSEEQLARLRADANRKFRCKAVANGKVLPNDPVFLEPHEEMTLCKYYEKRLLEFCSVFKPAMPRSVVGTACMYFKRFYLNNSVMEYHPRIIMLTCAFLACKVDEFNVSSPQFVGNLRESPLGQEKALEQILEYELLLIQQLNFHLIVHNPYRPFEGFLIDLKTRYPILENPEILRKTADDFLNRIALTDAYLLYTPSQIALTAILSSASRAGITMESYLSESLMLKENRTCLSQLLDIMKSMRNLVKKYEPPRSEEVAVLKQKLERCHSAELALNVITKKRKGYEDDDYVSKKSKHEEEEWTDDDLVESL
Cyclin-dependent kinase 7/ cyclin H, sequence (P50613 whole entry): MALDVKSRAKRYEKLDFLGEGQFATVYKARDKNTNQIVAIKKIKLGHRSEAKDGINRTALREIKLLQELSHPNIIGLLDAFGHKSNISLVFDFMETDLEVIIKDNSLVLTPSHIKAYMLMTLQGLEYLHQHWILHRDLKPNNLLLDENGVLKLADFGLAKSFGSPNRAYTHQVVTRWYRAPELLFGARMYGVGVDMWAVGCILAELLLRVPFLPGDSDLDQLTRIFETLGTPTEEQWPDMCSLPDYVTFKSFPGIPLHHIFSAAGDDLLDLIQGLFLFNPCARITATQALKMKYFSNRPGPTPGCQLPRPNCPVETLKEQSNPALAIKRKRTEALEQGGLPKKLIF

K562 [13] = assay: Cell cycle arrest in human K562 cells assessed as accumulation at S phase at 100 uM after 24 hrs by propidium iodide staining-based flow cytometry (reference value: 47.9%); format: functional
CDK9/cyclin T1 = CDK9/cyclin T1 (Homo sapiens, UniProt P50750); assay: Inhibition of CDK9/cyclin T1 (unknown origin) expressed in baculovirus infected Sf9 cells
CDK9/cyclin T1, sequence (O60563 whole entry): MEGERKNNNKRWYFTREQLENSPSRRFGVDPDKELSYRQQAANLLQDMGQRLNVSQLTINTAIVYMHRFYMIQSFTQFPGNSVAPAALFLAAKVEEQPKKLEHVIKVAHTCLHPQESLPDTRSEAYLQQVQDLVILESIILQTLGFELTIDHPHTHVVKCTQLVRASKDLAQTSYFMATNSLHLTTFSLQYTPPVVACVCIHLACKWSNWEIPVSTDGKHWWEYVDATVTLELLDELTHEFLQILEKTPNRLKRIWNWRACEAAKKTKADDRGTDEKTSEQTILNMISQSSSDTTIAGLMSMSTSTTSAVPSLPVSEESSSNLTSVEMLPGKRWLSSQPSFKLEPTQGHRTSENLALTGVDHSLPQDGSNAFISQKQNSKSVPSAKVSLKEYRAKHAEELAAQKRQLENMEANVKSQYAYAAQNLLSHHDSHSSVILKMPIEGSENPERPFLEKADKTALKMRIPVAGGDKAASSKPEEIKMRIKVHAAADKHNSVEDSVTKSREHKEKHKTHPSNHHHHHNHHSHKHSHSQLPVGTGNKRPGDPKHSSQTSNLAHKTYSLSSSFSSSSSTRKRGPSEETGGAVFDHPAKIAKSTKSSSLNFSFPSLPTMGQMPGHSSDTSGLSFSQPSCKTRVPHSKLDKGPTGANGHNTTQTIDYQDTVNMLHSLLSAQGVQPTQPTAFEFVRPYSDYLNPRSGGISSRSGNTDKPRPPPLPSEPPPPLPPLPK
CDK9/cyclin T1, sequence (P50750 whole entry): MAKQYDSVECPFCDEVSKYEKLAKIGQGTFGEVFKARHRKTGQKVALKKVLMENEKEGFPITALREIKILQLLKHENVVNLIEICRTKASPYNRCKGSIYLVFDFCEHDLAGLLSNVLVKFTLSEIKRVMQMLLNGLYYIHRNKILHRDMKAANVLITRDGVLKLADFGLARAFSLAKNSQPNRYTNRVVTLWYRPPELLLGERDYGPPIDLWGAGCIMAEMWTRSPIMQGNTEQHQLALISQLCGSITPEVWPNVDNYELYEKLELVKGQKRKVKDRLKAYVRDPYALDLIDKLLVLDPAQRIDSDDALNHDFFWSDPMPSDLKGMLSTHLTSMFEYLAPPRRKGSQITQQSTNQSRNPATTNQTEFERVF

RPMI-8226 [14] = assay: Induction of apoptosis in human RPMI8226 cells assessed as increase in caspase 3 activity at 25 to 100 uM after 24 hrs by fluorescence assay; format: functional, cell-based
RPMI-8226 [15] = assay: Induction of apoptosis in human RPMI8226 cells assessed as caspase 3 activation at 25 to 100 uM after 24 hrs by immunoblot analysis; format: functional, cell-based
[16] = Cell cycle arrest in human RPMI8226 cells assessed as accumulation at G1 phase at 100 uM after 24 hrs by propidium iodide staining-based flow cytometry (reference value: 22.2%); format: functional; settings: RPMI-8226
[17] = target: Cyclin-dependent kinase 4/cyclin D1 (Homo sapiens, UniProt P11802); assay: Inhibition of CDK4/cyclin D1 (unknown origin) expressed in baculovirus infected Sf9 cells
Cyclin-dependent kinase 4/cyclin D1, sequence (P11802 whole entry): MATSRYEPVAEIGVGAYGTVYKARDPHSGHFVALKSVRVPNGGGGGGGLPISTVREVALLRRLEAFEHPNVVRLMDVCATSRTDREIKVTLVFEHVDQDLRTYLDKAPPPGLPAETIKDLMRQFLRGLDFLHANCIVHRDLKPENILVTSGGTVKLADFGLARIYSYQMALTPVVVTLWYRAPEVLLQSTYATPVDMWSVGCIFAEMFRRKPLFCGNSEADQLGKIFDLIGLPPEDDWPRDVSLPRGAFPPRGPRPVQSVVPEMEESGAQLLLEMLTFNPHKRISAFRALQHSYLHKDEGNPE
Cyclin-dependent kinase 4/cyclin D1, sequence (P24385 whole entry, further chain): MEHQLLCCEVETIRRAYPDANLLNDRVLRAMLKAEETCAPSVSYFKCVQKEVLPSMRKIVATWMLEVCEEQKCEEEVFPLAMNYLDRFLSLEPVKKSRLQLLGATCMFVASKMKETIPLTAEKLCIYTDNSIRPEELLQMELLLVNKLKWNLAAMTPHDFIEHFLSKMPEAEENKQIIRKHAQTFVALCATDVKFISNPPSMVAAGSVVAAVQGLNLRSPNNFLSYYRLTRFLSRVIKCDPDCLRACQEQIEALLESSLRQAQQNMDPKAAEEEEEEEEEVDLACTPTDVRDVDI

RPMI-8226 [18] = assay: Induction of apoptosis in human RPMI8226 cells assessed as PARP-1 cleavage at 25 to 100 uM after 24 hrs by immunoblot analysis; format: functional, cell-based
MCF7 [19] = assay: Cell cycle arrest in human MCF7 cells assessed as accumulation at S phase at 40 uM after 24 hrs by propidium iodide staining-based flow cytometry (reference value: 28.3%); format: functional
[20] = target: Cyclin-dependent kinase 1/cyclin B1 (Homo sapiens, UniProt P06493); assay: Inhibition of CDK1/cyclin B (unknown origin) expressed in baculovirus infected Sf9 cells
Cyclin-dependent kinase 1/cyclin B1, sequence (P06493 whole entry): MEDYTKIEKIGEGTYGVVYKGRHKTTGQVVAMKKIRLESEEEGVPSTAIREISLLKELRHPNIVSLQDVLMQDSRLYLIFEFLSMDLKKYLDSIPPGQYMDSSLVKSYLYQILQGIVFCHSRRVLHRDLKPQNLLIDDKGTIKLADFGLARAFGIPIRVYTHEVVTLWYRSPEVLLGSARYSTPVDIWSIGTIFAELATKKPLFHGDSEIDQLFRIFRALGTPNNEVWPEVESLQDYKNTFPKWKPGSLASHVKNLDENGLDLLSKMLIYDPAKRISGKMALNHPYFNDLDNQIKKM
Cyclin-dependent kinase 1/cyclin B1, sequence (P14635 whole entry, further chain): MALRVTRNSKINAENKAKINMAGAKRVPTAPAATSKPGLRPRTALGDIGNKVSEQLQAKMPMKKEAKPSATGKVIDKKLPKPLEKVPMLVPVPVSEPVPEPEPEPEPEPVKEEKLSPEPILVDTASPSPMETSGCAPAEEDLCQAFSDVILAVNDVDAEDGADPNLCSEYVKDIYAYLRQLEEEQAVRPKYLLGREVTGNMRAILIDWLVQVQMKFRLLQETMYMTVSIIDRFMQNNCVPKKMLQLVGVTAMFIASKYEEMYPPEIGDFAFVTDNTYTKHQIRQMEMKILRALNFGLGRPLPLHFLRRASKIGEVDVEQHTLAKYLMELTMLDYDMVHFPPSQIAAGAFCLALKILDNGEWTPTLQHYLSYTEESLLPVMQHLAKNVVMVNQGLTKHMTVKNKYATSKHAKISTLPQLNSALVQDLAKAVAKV

K562 [21] = assay: Cell cycle arrest in human K562 cells assessed as accumulation at G2/M phase at 100 uM after 24 hrs by propidium iodide staining-based flow cytometry (reference value: 25.8%); format: functional
MCF7 [22] = assay: Cell cycle arrest in human MCF7 cells assessed as accumulation at subG1 phase at 40 uM after 24 hrs by propidium iodide staining-based flow cytometry (reference value: 0.6%); format: functional
MCF7 [23] = assay: Cell cycle arrest in 8 hrs thymidine-synchronized human MCF7 cells assessed as delay in cell cycle progression at 12.5 to 25 uM after 16 hrs by propidium iodide staining-based flow cytometry; format: functional
MCF7 [24] = assay: Cell cycle arrest in human MCF7 cells assessed as accumulation at G2/M phase at 40 uM after 24 hrs by propidium iodide staining-based flow cytometry (reference value: 9.8%); format: functional
RPMI-8226 [25] = assay: Induction of apoptosis in human RPMI8226 cells assessed as increase in caspase 9 activity at 25 to 100 uM after 24 hrs by fluorescence assay; format: functional, cell-based
[26] = Cell cycle arrest in human RPMI8226 cells assessed as accumulation at G2/M phase at 100 uM after 24 hrs by propidium iodide staining-based flow cytometry (reference value: 24.8%); format: functional; settings: RPMI-8226
[27] = Cell cycle arrest in human RPMI8226 cells assessed as accumulation at S phase at 100 uM after 24 hrs by propidium iodide staining-based flow cytometry (reference value: 53%); format: functional; settings: RPMI-8226
MCF7 [28] = assay: Cell cycle arrest in 8 hrs thymidine-synchronized human MCF7 cells assessed as inhibition of re-entry to cell cycle at 5 to 10 uM after 16 hrs by propidium iodide staining-based flow cytometry; format: functional
MCF7 [29] = assay: Cell cycle arrest in 24 hrs thymidine-synchronized human MCF7 cells assessed as inhibition of re-entry to cell cycle at 5 to 10 uM after 16 hrs by propidium iodide staining-based flow cytometry; format: functional

## Nc1n[nH]c(N)c1/N=N/c1ccncc1
RPMI-8226 [1]
  IC50: 6.2 µM
MCF7 [2]
  IC50: 4.3 µM
K562 [3]
  IC50: 17 µM

## Nc1nn(C(=O)c2ccc([N+](=O)[O-])cc2)c(N)c1/N=N/c1ccc(O)cc1
[4]
  IC50: 15 µM
RPMI-8226 [1]
  IC50: > 100 µM
MCF7 [2]
  IC50: > 25 µM
K562 [3]
  IC50: > 25 µM

## CCOC(=O)n1nc(N)c(/N=N/c2ccc(O)cc2)c1N
[4]
  IC50: > 50 µM
RPMI-8226 [1]
  IC50: > 100 µM
MCF7 [2]
  IC50: > 100 µM
K562 [3]
  IC50: > 100 µM

## Nc1n[nH]c(N)c1/N=N/c1ccc(O)cc1
RPMI-8226 [1]
  IC50: 24.9 µM
MCF7 [2]
  IC50: 62 µM
K562 [3]
  IC50: 33 µM

## CC(=O)n1nc(N)c(/N=N/c2ccc(O)cc2)c1N
[4]
  IC50: 42.8 µM
RPMI-8226 [1]
  IC50: > 100 µM
MCF7 [2]
  IC50: 44.9 µM
K562 [3]
  IC50: 64.9 µM

## Cn1nc(N)c(/N=N/c2ccncc2)c1N
MCF7 [5]
  Activity: 50.6%
RPMI-8226 [6]
  Activity: Active
MCF7 [7]
  Activity: Active
K562 [8]
  Activity: 6.5%
K562 [9]
  Activity: 33.2%
[10]
  Activity: 57.7%
[4]
  IC50: 16.8 µM
MCF7 [11]
  Activity: Active
[12]
  IC50: > 50 µM
K562 [13]
  Activity: 31.4%
CDK9/cyclin T1
  IC50: 1.35 µM
RPMI-8226 [1]
  IC50: 50 µM
RPMI-8226 [14]
  Activity: Active
MCF7 [2]
  IC50: 37.7 µM
RPMI-8226 [15]
  Activity: Active
[16]
  Activity: 31.3%
[17]
  IC50: 0.42 µM
RPMI-8226 [18]
  Activity: Active
MCF7 [19]
  Activity: 15.8%
[20]
  IC50: 11.3 µM
K562 [21]
  Activity: 35.4%
MCF7 [22]
  Activity: 1%
MCF7 [23]
  Activity: Active
MCF7 [24]
  Activity: 33.5%
RPMI-8226 [25]
  Activity: Active
[26]
  Activity: 28.9%
[27]
  Activity: 39.8%
K562 [3]
  IC50: 67.4 µM

## Cn1nc(N)c(/N=N/c2ccc(O)cc2)c1N
[4]
  IC50: > 50 µM
RPMI-8226 [1]
  IC50: > 100 µM
MCF7 [2]
  IC50: > 100 µM
K562 [3]
  IC50: 98.5 µM

## Nc1n[nH]c(N)c1/N=N/c1cccc[n+]1[O-]
[4]
  IC50: > 100 µM
RPMI-8226 [1]
  IC50: > 100 µM
MCF7 [2]
  IC50: > 100 µM
K562 [3]
  IC50: 62.6 µM

## Nc1nn(C(=O)c2cccs2)c(N)c1/N=N/c1ccc(O)cc1
[4]
  IC50: > 25 µM
RPMI-8226 [1]
  IC50: > 100 µM
MCF7 [2]
  IC50: > 25 µM
K562 [3]
  IC50: > 25 µM

## Nc1n[nH]c(N)c1/N=N/c1cc[n+]([O-])cc1
[4]
  IC50: 17.4 µM
RPMI-8226 [1]
  IC50: > 100 µM
MCF7 [2]
  IC50: > 100 µM
K562 [3]
  IC50: > 100 µM

## CCn1cnc2c(Nc3cccc(Cl)c3)nc(N[C@@H]3CCCC[C@@H]3N)nc21
MCF7 [28]
  inhibition: Active
MCF7 [29]
  inhibition: Active
